5 compounds from ChEMBL document CHEMBL3243922, “Synthesis, redox characteristics, and in vitro norepinephrine uptake inhibiting properties of 2-(2-mercapto-4,5-dihydroxyphenyl)ethylamine (6-mercaptodopamine)” (J Med Chem, 1979) can be followed below.

Holding throughout (settings): in vivo
In data set [1] the test system is Rattus norvegicus. Nature of the data set: Pressor activity in iv dosed normotensive Sprague-Dawley rat assessed as dose required for increasing systolic blood pressure […] 30 mm Hg. The class given is organism-based, Artery.
Data set [2] deals with Rattus norvegicus. The experiment in a line: Neurotoxicity in Sprague-Dawley rat heart atria assessed as inhibition of [3H]norepinephrine uptake at 20 to 160 mg/kg, iv after 24 hrs by scintillation counting analysis. The class given is toxicity, organism-based. The arrangement: dose 20-160 mg/kg, route intravenous.
The test system of data set [3] is Rattus norvegicus. Nature of the data set: Central neurotoxicity in iv dosed Sprague-Dawley rat brain hypothalamus assessed as inhibition of [3H]norepinephrine uptake after 24 hrs by scintillation counting analysis. The format is organism-based.
The subject of data set [4] is Rattus norvegicus. The experiment in a line: Neurotoxicity in Sprague-Dawley rat heart atria assessed as inhibition of [3H]norepinephrine uptake at 10 mg/kg, iv after 24 hrs by scintillation counting analysis. The arrangement: dose 10 mg/kg, route intravenous. The class given is toxicity, organism-based.

Take `CC(N)Cc1cc(O)c(O)cc1O` (stereo not drawn): the Activity in data set [1] amounted to 6 ×10⁻⁵ g. As for `C[C@H](N)Cc1ccc(O)c(O)c1`, in data set [1], the Activity was found to be 3.1 µg. As to `Cl.NCCc1cc(O)c(O)cc1S`, the results for the Activity entry in data set [2], in data set [3] and in data set [1] were “Toxic”, “Non-toxic” and 1.3 ×10⁻⁴ g, respectively.

In the case of `NCCc1ccc(O)c(O)c1` [DOPAMINE], in data set [1], the Activity amounted to 2.9 µg. Consider `NCCc1cc(O)c(O)cc1O` [OXIDOPAMINE], for which the values for the Activity in data set [1] and in data set [4] were 1.6 ×10⁻⁵ g and “Toxic”, respectively.
